Experimental data as given in patent publication US9029325B2, “Amylin analogues and pharmaceutical compositions thereof” (Novo Nordisk A/S, priority 2011, dated 2015).
Starred links: 1 amine or outer side, 2 acyl side, 3 side chain; linkers in the order of their positions; H or OH if unused. Positions of bridges follow the written chain, without caps; N, C: chain ends. Residues, ends and D or L forms follow the SMILES beside them. *: point of attachment. C20 diacid = O=C(O)CCCCCCCCCCCCCCCCCCC(=O)*; γGlu = O=C(O)[C@H](CCC(=O)[*:2])N[*:1]

Test: Assay (I) efficacy testing on appetite (food intake), ad libitum fed rat model
Type: in vivo, Sprague Dawley (SD) rats
Method in brief: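 Ad libitum fed SD rats (200-250 g) on a reversed light cycle, housed individually, received a single 0.01-3 mg/kg dose ip, po or sc just before lights-off. Individual food intake recorded hourly for 7 h, then at 24 h and sometimes 48 h, versus vehicle; Grubbs outliers excluded.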

Structure (SMILES)	Food intake reduction 0-24 h 30 nmol/kg (%) (30 nmol/kg, 0-24 h)	Food intake reduction 24-48 h 30 nmol/kg (%) (30 nmol/kg, 24-48 h)	Food intake reduction 0-24 h 3 nmol/kg (%) (3 nmol/kg, 0-24 h)	Food intake reduction 24-48 h 3 nmol/kg (%) (3 nmol/kg, 24-48 h)
CC[C@H](C)[C@H](NC(=O)[C@@H]1CCCN1C(=O)CNC(=O)[C@H](Cc1ccccc1)NC(=O)[C@H](CC(N)=O)NC(=O)[C@H](CC(N)=O)NC(=O)[C@H](CO)NC(=O)[C@H](CO)NC(=O)[C@H](Cc1c[nH]cn1)NC(=O)[C@H](CCCNC(=N)N)NC(=O)[C@H](CC(C)C)NC(=O)[C@H](Cc1ccccc1)NC(=O)[C@H](CCC(=O)O)NC(=O)[C@H](C)NC(=O)[C@H](CC(C)C)NC(=O)[C@H](CCCNC(=N)N)NC(=O)[C@H](CCC(N)=O)NC(=O)[C@@H](NC(=O)[C@H](C)NC(=O)[C@@H]1CSSC[C@H](NC(=O)[C@H](Cc2c[nH]cn2)NC(=O)[C@H](Cc2c[nH]cn2)NC(=O)[C@H](Cc2c[nH]cn2)NC(=O)CC[C@H](NC(=O)CCCCCCCCCCCCCCCCCCC(=O)O)C(=O)O)C(=O)N[C@@H](CC(N)=O)C(=O)N[C@@H]([C@@H](C)O)C(=O)N[C@@H](C)C(=O)N[C@@H]([C@@H](C)O)C(=O)N1)[C@@H](C)O)C(=O)N[C@@H](CC(C)C)C(=O)N1CCC[C@H]1C(=O)N1CCC[C@H]1C(=O)N[C@H](C(=O)N[C@@H](CC(N)=O)C(=O)N[C@H](C(=O)NCC(=O)N[C@@H](CO)C(=O)N[C@@H](CC(N)=O)C(=O)N[C@H](C(=O)N[C@@H](Cc1ccc(O)cc1)C(N)=O)[C@@H](C)O)C(C)C)[C@@H](C)O [compound 12] ({C20 diacid-γGlu}-HHHCNTATCATQRLAEFLRHSSNNFGPILPPTNVGSNTY-NH2; disulfide 4-9)	70	45		
CC[C@H](C)[C@H](NC(=O)[C@@H]1CCCN1C(=O)CNC(=O)[C@H](Cc1ccccc1)NC(=O)[C@H](CC(N)=O)NC(=O)[C@H](CC(N)=O)NC(=O)[C@H](CO)NC(=O)[C@H](CO)NC(=O)[C@H](CCCNC(=N)N)NC(=O)[C@@H](NC(=O)[C@H](CC(C)C)NC(=O)[C@H](Cc1ccccc1)NC(=O)[C@H](CCC(=O)O)NC(=O)[C@H](C)NC(=O)[C@H](CC(C)C)NC(=O)[C@H](CCCNC(=N)N)NC(=O)[C@H](CCC(N)=O)NC(=O)[C@@H](NC(=O)[C@H](C)NC(=O)[C@@H]1CSSC[C@H](NC(=O)[C@H](Cc2c[nH]cn2)NC(=O)CC[C@H](NC(=O)CCCCCCCCCCCCCCCCCCC(=O)O)C(=O)O)C(=O)N[C@@H](CC(N)=O)C(=O)N[C@@H]([C@@H](C)O)C(=O)N[C@@H](C)C(=O)N[C@@H]([C@@H](C)O)C(=O)N1)[C@@H](C)O)C(C)C)C(=O)N[C@@H](CC(C)C)C(=O)N1CCC[C@H]1C(=O)N1CCC[C@H]1C(=O)N[C@H](C(=O)N[C@@H](CC(N)=O)C(=O)N[C@H](C(=O)NCC(=O)N[C@@H](CO)C(=O)N[C@@H](CC(N)=O)C(=O)N[C@H](C(=O)N[C@@H](Cc1ccc(O)cc1)C(N)=O)[C@@H](C)O)C(C)C)[C@@H](C)O [compound 15] ({C20 diacid-γGlu}-HCNTATCATQRLAEFLVRSSNNFGPILPPTNVGSNTY-NH2; disulfide 2-7 (inferred); C-terminus assumed)			56	59
